{"source": "patent US20250161309A1", "about": "“TOPICAL COMPOSITIONS AND USES THEROF” (TOPADUR PHARMA AG, priority 2022, published 2025)", "tested_on": "C57BL/6 mouse model for chemotherapy-induced alopecia (CIA)", "assay": "Preventive C57BL/6 mouse model of cyclophosphamide (chemotherapy)-induced alopecia (CIA), topical administration", "type": "in vivo", "settings": "female mice; for mice with visual melanogenesis in peeled skin: end of study; for Ki-67 mean score (positive cells near the root sheath of hair follicles, semi-quantitative grading): vehicle 0.4; for CD-31 mean score (perifollicular angiogenesis, semi-quantitative grading): vehicle group 0.8", "procedure": "Female C57BL/6 mice (Vivo Bio Tech Ltd, Telangana, India) of 6 to 9 weeks of age in stable telogen phase of hair growth cycle were used.\n100 μL of a clear solution of respective 0.0004%, 0.002% (w/v) concentrations of Cpd 1 in the corresponding vehicle (PEG-400:EtOH/7:3) (PEG-400: Central Drug House Ltd. Dehli, India; Ethanol: Changshu Hongsheng fine chemicals Co. Ltd. China) and the positive control, 2% solution (w/v) Minoxidil (Chemieliva, China) in the corresponding vehicle (PEG-400:EtOH/7:3) were topically applied to the depilated area on the dorsal back of female mice. The solutions covered a circular area of approximately 4 cm^2. The treatment regimen was twice daily for 7 days before Cyclophosphamide injection and afterwards for 3 weeks.\nAnimals (female) on day 1 weighted on average 18.8 g+0.2 ranging from 18.5 to 19.3 g. The animals were exposed by gentle clipping of hair from the dorsal back using an electric clipper. The following day, animals with clear skin were depilated using a depilatory cream. To evaluate the preventive potential of Cpd 1 in the chemotherapy-induced alopecia mouse model, animals were treated topically with 0.0004% and 0.002% Cpd 1, 2% Minoxidil and vehicle from day 1 onwards on the dorsal depilated skin with twice daily application regimen until day 10, when all the animals have attained the anagen stage. On day 11 after depilation, no application of the Cpd 1 or vehicle was done. This was considered a wash-out period. On day 12 after depilation, the animals were given intraperitoneal injection of cyclophosphamide (CYP-HiMedia Laboratories, Mumbai, India) at the dose of 150 mg/kg body weight. One day of wash-out period was given to the animals before restarting the treatment with Cpd 1. The treatment regimen was reinitiated with 0.0004% and 0.002% Cpd 1, 2% Minoxidil and vehicle in the respective groups for further 3 weeks. All the animals were observed from day 1 (experiment start) till day 30 (experiment termination and animal sacrifice day) and the hair growth score was recorded on a daily basis. The criteria for scoring of hair growth is as follows: no hair growth, pink skin—score 0; skin colour changes from pink to grey/light grey without visible hair growth—score 0.5; onset of anagen (skin colour changes from grey/light grey to dark grey/black without visible hair growth)—score 1; sparse hair growth—score 1.5; diffuse short hair growth—score 2, moderate hair growth—score 2.5 and dense, normal coat hair—score 3 (Lee B H, Lee J S, Kim Y C. Hair growth-promoting effects of lavender oil in C57BL/6 mice. Toxicol Res. (2016) 32(2):103-108). Photographs of the animals were captured before the initiation and during the course of the study. […]\nAfter completion of the experiments all animals were sacrificed by euthanasia (Choi H I, Kang B M, Jang J, Hwang S T, Kwon O. Novel effect of sildenafil on hair growth. Biochem Biophys Res Commun. (2018) 505(3):685-691). The dorsal skin of each animal was then removed by peeling. The peeled skin was spread and checked visually for the induction of melanogenesis indicated by visual blackening on the reverse side of the skin. The skin samples were evenly spread on a pre-labelled glass slide and kept in 10% formalin until further use. Later, the skin samples were embedded in paraffin and sectioned at 5 microns using a microtome and the corresponding slides per animal were prepared. The slides obtained were used for Haematoxylin & Eosin (H&E) staining and in the transverse and longitudinal sections' photomicrographs data, the total number of follicles in the dermis and the sub cutis were determined for each animal. The skin thickness was measured using Image J 1.44 software. […]"}
{"smiles": "CCCOc1ccc(S(=O)(=O)N2CCC(CCO[N+](=O)[O-])(CCO[N+](=O)[O-])CC2)cc1-c1nc2c(CCC)cn(CC)c2c(=O)[nH]1", "note": "[Cpd 1, (1-((3-(5-ethyl-4-oxo-7-propyl-4,5-dihydro-3H-pyrrolo[3,2-d]pyrimidin-2-yl)-4-propoxyphenyl)sulfonyl)piperidine-4,4-diyl)bis(ethane-2,1-diyl) dinitrate]", "values": [{"measurement": "number of hair follicles, Cpd 1 compared with 2% Minoxidil-treated groups", "value": "No significant differences"}, {"measurement": "signs of alopecia after CYP administration on day 12", "setting": "0.0004% (w/v)", "value": "minor signs of alopecia"}, {"measurement": "mice with visual melanogenesis in peeled skin", "setting": "0.0004% (w/v)", "value": "6/7"}, {"measurement": "Ki-67 mean score (positive cells near the root sheath of hair follicles, semi-quantitative grading)", "setting": "0.0004% (w/v)", "value": 1.4}, {"measurement": "CD-31 mean score (perifollicular angiogenesis, semi-quantitative grading)", "setting": "0.0004% (w/v)", "value": 1.4}, {"measurement": "depth and development of dermal papilla and long hair shaft of hair follicles observed (longitudinal skin sections)", "setting": "0.0004% and 0.002%", "value": "majority of the animals"}, {"measurement": "thickness of the skin compared to vehicle group", "setting": "0.0004% and 0.002%", "value": "slightly increase"}, {"measurement": "skin color change (transition from telogen to anagen phase) compared to Minoxidil-treated group", "setting": "0.0004% and 0.002%, before CYP administration, majority of animals, end of first week of application", "value": "faster"}, {"measurement": "increase in hair growth, 0.002% compared to 0.0004%", "setting": "0.002% (w/v)", "value": "slightly faster increase"}, {"measurement": "signs of alopecia after CYP administration on day 12", "setting": "0.002% (w/v)", "value": "no signs of alopecia"}, {"measurement": "mice with visual melanogenesis in peeled skin", "setting": "0.002% (w/v)", "value": "7/7"}, {"measurement": "Ki-67 mean score (positive cells near the root sheath of hair follicles, semi-quantitative grading)", "setting": "0.002% (w/v)", "value": 1.7}, {"measurement": "CD-31 mean score (perifollicular angiogenesis, semi-quantitative grading)", "setting": "0.002% (w/v)", "value": 1.6}, {"measurement": "adverse effects on body weight", "setting": "30-day study, any of the groups", "value": "no adverse effects"}, {"measurement": "behavioral changes, reaction to treatment or adverse effects in relation to general health", "setting": "30-day study, topical twice daily", "value": "no signs of behavioral changes, reaction to treatment or adverse effects"}, {"measurement": "decrease in the mean hair growth after CYP administration", "setting": "Compound 1 treated groups", "value": "no decrease"}, {"measurement": "number of hair follicles in the subcutis layer of the skin and total follicle counts compared to vehicle group (H&E)", "setting": "Compound 1 treated groups", "value": "significantly increased"}, {"measurement": "animals with complete hair regrowth (hair growth score of 3)", "setting": "Cpd 1 groups (0.0004% and 0.002%)", "value": "7/7"}, {"measurement": "increase in hair growth compared to Minoxidil and vehicle group", "setting": "from day 6/7 onwards", "value": "faster increase"}]}
